How the values were obtained:
[1] = Hygroscopicity (water uptake at stated relative humidity); format: physicochemical; conditions: for hygroscopicity relative to the mesylate salt: compared with mesylate salt; for water absorbed: 90% relative humidity
[2] = Stability in air / deliquescence; format: physicochemical; conditions: can be used without deliquescence
[3] = Crystallinity (freedom from amorphous material); format: physicochemical; conditions: i.e., substantially free of amorphous material
[4] = Conversion of crystal form in refluxing ethanol; format: physicochemical
[5] = Tendency of concentrated aqueous solution to form viscous mixtures upon standing; format: physicochemical
[6] = Sedative effect on dosing; format: in vivo; conditions: low to moderate dosing
[7] = format: physicochemical; conditions: for kinetic solubility relative to free base or hydrochloride: compared with free base or hydrochloride form

Row | Compound | Hygroscopicity ([1]; 87% relative RH) [%] | hygroscopicity relative to the mesylate salt [1] | stability in air [2] | hygroscopic stability [1] | crystallinity [3] | also measured
1 | 3-(4-bromo-2,6-difluoro-benzyloxy)-5-[3-(4-pyrrolidin-1-yl-butyl)-ureido]-isothiazole-4-carboxylic acid amide hemi-citrate [Example 4] | 0.43 | less hygroscopic than the mesylate salt | more stable in air | – | – | –
2 | 3-(4-bromo-2,6-difluoro-benzyloxy)-5-[3-(4-pyrrolidin-1-yl-butyl)-ureido]-isothiazole-4-carboxylic acid amide hemi-succinate | – | – | – | substantially hygroscopically stable | high crystallinity | –
3 | 3-(4-bromo-2,6-difluoro-benzyloxy)-5-[3-(4-pyrrolidin-1-yl-butyl)-ureido]-isothiazole-4-carboxylic acid amide hemi-succinate [Example 8] | – | – | – | – | – | Hygroscopicity ([1]; 30° C. and 90% RH, listed as Hemi-succinate crystal form A): 0.6 % w/w; Hygroscopicity ([1]; 90% relative RH): 0.6%; water absorbed ([1]; listed as Form A hemi-succinate): 0.6%
4 | 3-(4-bromo-2,6-difluoro-benzyloxy)-5-[3-(4-pyrrolidin-1-yl-butyl)-ureido]-isothiazole-4-carboxylic acid amide hemi-succinate [Example 9] | – | – | – | – | – | Hygroscopicity ([1]; 30° C. and 90% RH, listed as Hemi-succinate crystal form B): 1.5 % w/w; Hygroscopicity ([1]; 90% relative RH): 1.5%; water absorbed ([1]; listed as Form B hemi-succinate): 1.5%; time for conversion of hemi-succinate form B into form A [4]: less than 24 hours
5 | Cl.NC(=O)c1c(OCc2c(F)cc(Br)cc2F)nsc1NC(=O)NCCCCN1CCCC1 [Example 2, 3-(4-bromo-2,6-difluoro-benzyloxy)-5-[3-(4-pyrrolidin-1-yl-butyl)-ureido]-isothiazole-4-carboxylic acid amide hydrochloride] | – | – | – | substantially hygroscopically stable | high crystallinity | tendency for concentrated aqueous solution to form viscous mixtures upon standing [5]: low tendency; Hygroscopicity ([1]; 90% relative humidity at ambient temperature): 1 % (by weight)
6 | Br.NC(=O)c1c(OCc2c(F)cc(Br)cc2F)nsc1NC(=O)NCCCCN1CCCC1 [Example 3, 3-(4-bromo-2,6-difluoro-benzyloxy)-5-[3-(4-pyrrolidin-1-yl-butyl)-ureido]-isothiazole-4-carboxylic acid amide hydrobromide] | 0.1 | – | – | substantially hygroscopically stable | high crystallinity | sedative effect [6]: mild sedative effect; tendency for concentrated aqueous solution to form viscous mixtures upon standing [5]: low tendency
7 | CC(=O)O.NC(=O)c1c(OCc2c(F)cc(Br)cc2F)nsc1NC(=O)NCCCCN1CCCC1 [Example 5, 3-(4-bromo-2,6-difluoro-benzyloxy)-5-[3-(4-pyrrolidin-1-yl-butyl)-ureido]-isothiazole-4-carboxylic acid amide acetate] | – | – | – | – | high crystallinity | –
8 | Cc1ccc(S(=O)(=O)O)cc1.NC(=O)c1c(OCc2c(F)cc(Br)cc2F)nsc1NC(=O)NCCCCN1CCCC1 [Example 6, 3-(4-bromo-2,6-difluoro-benzyloxy)-5-[3-(4-pyrrolidin-1-yl-butyl)-ureido]-isothiazole-4-carboxylic acid amide p-tosylate] | −0.9 | less hygroscopic than the mesylate salt | more stable in air | – | – | kinetic solubility relative to free base or hydrochloride [7]: greater kinetic solubility than the free base or hydrochloride form
9 | NC(=O)c1c(OCc2c(F)cc(Br)cc2F)nsc1NC(=O)NCCCCN1CCCC1.O=C(O)C(O)C(O)C(=O)O [Example 7, 3-(4-bromo-2,6-difluoro-benzyloxy)-5-[3-(4-pyrrolidin-1-yl-butyl)-ureido]-isothiazole-4-carboxylic acid amide L-tartrate] | – | less hygroscopic than the mesylate salt | more stable in air | – | – | kinetic solubility relative to free base or hydrochloride [7]: greater kinetic solubility than the free base or hydrochloride form; Hygroscopicity ([1]; 100% RH): 0.3%
10 | CS(=O)(=O)O.NC(=O)c1c(OCc2c(F)cc(Br)cc2F)nsc1NC(=O)NCCCCN1CCCC1 [Example 10, 3-(4-bromo-2,6-difluoro-benzyloxy)-5-[3-(4-pyrrolidin-1-yl-butyl)-ureido]-isothiazole-4-carboxylic acid amide mesylate] | – | – | – | – | high crystallinity | kinetic aqueous solubility [7]: rapid kinetic aqueous solubility
